This note sets out measurements from US20230087994A1, “TARGETED BIFUNCTIONAL DEGRADERS” (YALE UNIVERSITY, priority 2019, published 2023).

Data set [1] concerns ASGPR on the surface of immortalized human hepatocyte HepG2 cells. Nature of the data set: DNP-GN3-mediated ternary complex formation: association of fluorescently labeled α-DNP antibody with HepG2 cells in suspension. In kind it is cell-based. To be noted: for concentration of DNP-GN3 eliciting half-maximal fluorescence association: bell-shaped response, FIG. 86A. The source says:
It was investigated whether DNP-GN3 could mediate the formation of a ternary complex between a fluorescently labeled α-DNP antibody and ASGPR on the surface of immortalized human hepatocyte HepG2 cells in suspension. […] The observed bell-shaped response to DNP-GN3 concentration is consistent with the prozone effect commonly observed in systems wherein a ternary complex is formed.

In data set [2] the test system is HepG2 cells. The data set is described as follows: DNP-GN3-mediated endocytosis of fluorescently labeled α-DNP antibody by adherent HepG2 cells. It counts as cell-based, human. How it is done: It was next explored whether DNP-GN3 mediates the endocytosis of fluorescently labeled α-DNP antibody.
To explore the cellular mechanism of antibody uptake, cells were treated with chemical inhibitors of several endocytic pathways (FIG. 89).

Data set [3] relates to HepG2 cells. Nature of the data set: Subcellular localization of α-DNP antibody endocytosed via DNP-GN3 (microscopy). It counts as cell-based, human. The settings on record: after 12 hours.
The subject of data set [4] is HepG2 cells. Nature of the data set: Western blot of α-DNP antibody degradation in HepG2 cells treated with DNP-GN3. It counts as cell-based, human. To be noted: anti-Alexa Fluor 488, FIG. 92A. How it is done: In addition, western blotting with an antibody directed to Alexa Fluor 488 was used to determine if endocytosed fluorescently labeled α-DNP antibodies are degraded in vitro. […] Signal arising from Alexa Fluor 488 in cell lysates was associated with only full-length antibody after two hours of incubation. After six hours, a lower molecular weight fluorophore-associated protein fragment between 37 and 50 kDa began to appear. An additional protein fragment with a molecular weight between 25 and 37 kDa was observed after 24 hours. […] Together with the above immunofluorescence studies showing the colocalization of α-DNP antibody-derived fluorescence with lysosomes, these studies support that α-DNP antibody degradation is mediated by lysosomal proteases. Lysosomal degradation is further consistent with a mechanism dependent on ASGPR.
(In general: A western blot detects proteins with antibodies after separation by electrophoresis.)

Data set [5] in a line: Pharmacokinetics of DNP-GN3 in nude mice. It counts as in vivo. The settings on record: 1 mpk.
The nature of data set [6]: Tolerability of DNP-GN3 and DNP-OH3 in mice (body weight, AST, ALT). In kind it is in vivo. How it is done:
FIGS. 93A-93C illustrate that DNP-GN3 and DNP-OH3 are not toxic to mice at all tested concentrations. FIG. 93A: mouse body weight following treatment with DNP-GN3 or DNP-OH3. Statistical differences were analyzed by T test. FIG. 93B: levels of aspartate transaminase (AST) in treated mice. Dashed lines represent the normal range. FIG. 93C: levels of alanine transaminase (ALT) in treated mice. Dashed lines represent the normal range.

The test system of data set [7] is α-DNP antibody. The data set is described as follows: Depletion of α-DNP antibody from serum in mice (ELISA). It counts as in vivo. The settings on record: for serum α-DNP antibody levels compared to PBS: initial 200 μg monoclonal antibody, 21 days, nude mice. The procedure: FIG. 94 illustrates that serum levels of α-DNP antibody decrease more rapidly following repeated treatment with DNP-GN3. Serum antibody levels were measured using an ELISA assay. Each experimental group contained three mice. Statistical differences in experiments involving in vivo depletion of α-DNP antibody were assessed by repeated measures two-way ANOVA with Tukey's tests for post-hoc comparison of simple effects between each of the treatment groups and PBS.
Single doses of DNP-GN3 were also found to be efficacious at mediating α-DNP antibody depletion, albeit less effectively than daily dosing (FIG. 96). […] Therefore, it was concluded that DNP-GN3 is able to mediate the depletion of a monoclonal antibody from serum, and functions across a wide range of target protein concentrations and dosing regimens.
DNP-GN3 was also found to be efficacious in depleting polyclonal α-DNP antibody from serum collected from mice immunized with DNP-keyhole limpet haemocyanin (KLH) (FIG. 97). […] Thus, the small molecule DNP-GN3 is not restricted in function to only monoclonal mouse antibodies, but is also effective at removing polyclonal α-DNP antibodies from circulation in mice.
In general terms: An ELISA detects its analyte on a solid surface through an enzyme-linked reagent.

For another data set, the system named is PC3 cells. Nature of the data set: Human prostate cancer PC3 tumor growth in mice. In kind it is in vivo. The settings on record: control and comparator arms; FIG. 138. How it is done:
The ability of MIF-GN3 to mediate the depletion of MIF in a therapeutically relevant disease model was investigated. […] An experiment was conducted to determine whether the bifunctional molecule MIF-GN3 can deplete sufficient human MIF from serum to slow PC3 tumor growth. Mice were injected with an aliquot of PC3 cells, and the size of the resultant tumors as well as the levels of human MIF in serum were monitored over five weeks. […] Five weeks after the initial PC3 cell injection, the first of the mice reached maximal tumor size ([…]) and was sacrificed (FIG. 138). […] The decrease in human MIF levels mediated by MIF-GN3 is consistent with a mechanism of action in which MIF-GN3 mediates the depletion and degradation of circulating MIF protein. While the α-MIF antibody would not necessarily be expected to decrease the levels of human MIF, it is possible that the antibody mediates MIF neutralization in a manner which masks its signal as determined by ELISA. Alternatively, the α-MIF antibody may mediate depletion or degradation of huMIF by some endocytic mechanism. Another possible explanation is that the α-MIF antibody decrease serum levels of active human MIF to such an extent at early time points that PC3 cells proliferate much more slowly, and therefore fewer cells are actively secreting human MIF.
Mice were sacrificed when their tumor volumes reached 1000 mm^3. […] At this same time point, less than 25% of the mice in any other arm had survived.

Data set [8] deals with α-DNP antibody. The data set is described as follows: Depletion of α-DNP antibody from serum in mice (ELISA). In kind it is in vivo. The settings on record: i.p.; FIG. 79A.

Values joined by “and” are separate entries in the source; they are usually repeats but may differ in a detail not shown here. Equal entries are not always repeated.

As to `CC(=O)NC1C(OCCOCCOCCNC(=O)CCOCC(COCCC(=O)NCCOCCOCCOC2OC(CO)C(O)C(O)C2NC(C)=O)(COCCC(=O)NCCOCCOCCOC2OC(CO)C(O)C(O)C2NC(C)=O)NC(=O)CNC(=O)COCCOCCOCCNc2ccc([N+](=O)[O-])cc2[N+](=O)[O-])OC(CO)C(O)C1O` (centres unmarked) [DNP-GN3], the “concentration of maximal ternary complex formation” value in data set [1] (DNP-GN3) was 20 nM and 40 nM. For the same molecule, the results for the “concentration of DNP-GN3 eliciting half-maximal fluorescence association” value in [1] (higher concentration (prozone)) and in data set [1] (lower concentration) were 0.12 µM and 0.0074 µM, respectively. Further, in the data set on HepG2 cells [2] (FIG. 87A), the “intracellular fluorescence of adherent HepG2 cells” value is “dependent on the concentration of both DNP-GN3 and α-DNP antibody”. For the same molecule, the “uptake of α-DNP antibody” value with HepG2 cells [2] (target protein at 1 nM) is on record as “not effective”. Besides, the “colocalization of endocytosed α-DNP antibody with early endosome marker EEA1” value with HepG2 cells [3] (FIG. 91A) is “No colocalization”. For the same molecule, in the data set with HepG2 cells [3] (FIG. 91B), the “colocalization of α-DNP antibody with lysosome membrane protein LAMP2” value is reported as “strong colocalization”. Further, in the data set on HepG2 cells [4], the “fluorophore accumulation in lysates of HepG2 cells” value was “accumulate fluorophore in a time- and DNP-GN3-dependent manner”. In addition, the “bioavailability via IP dosing” value in data set [5] was “bioavailable”. In data set [5] (IP), this molecule showed a half-life in serum of 40.2 min. Also, the “time at which maximal serum concentration is reached” value in data set [5] (IP) is given as 1 h. For the same molecule, the toxicity to mice result in data set [6] (all tested concentrations, FIGS. 93A-93C) is listed as “not toxic”. The “body weight or serum liver enzyme levels, control versus treatment groups” value in data set [6] (up to 100 mpk, FIGS. 93A-93C) is “no significant differences”. Further, the tolerability result in data set [6] (up to doses of 100 mpk) is reported as “well-tolerated”. Also, the “α-DNP antibody depleted from serum” value stood at 52% in the data set on α-DNP antibody [7] (24 hours after a single dose of 1 mpk (vehicle 24%)) and 34% in the data set on α-DNP antibody [7] (24 hours after a single dose of 10 mpk (vehicle 24%)). In addition, the “serum α-DNP antibody levels compared to PBS” value in the data set with α-DNP antibody [7] (daily 1 mpk) and with α-DNP antibody [7] (twice-daily 1 mpk) was “significantly reduced” throughout. For the same molecule, the “serum α-DNP antibody levels” value in the data set on α-DNP antibody [7] (daily treatment, initial antibody dose 500 μg) is on record as “significant decrease”. The “polyclonal α-DNP antibody removed from serum compared to PBS” value in the data set on α-DNP antibody [7] (daily treatment, mice immunized with DNP-KLH, each time point) was “significantly more polyclonal α-DNP antibody was removed”. The “α-DNP antibody depletion from serum” value in the data set with α-DNP antibody [7] (single dose of 100 mpk) is on record as “Significant depletion”. Further, in the data set with PC3 cells, the PC3 tumor growth entry is on record as “not found to decrease tumor growth”. Further, the “degradation of injected anti-DNP IgG antibodies in mouse serum” value with α-DNP antibody [8] was “can induce degradation”.
